Results: US20060194835A1, “Compositions and methods for treating or preventing flaviviridae infections” (priority 2005, published 2006)

What was measured:
BVDV [1] = assay: Protection of MDBK cells from BVDV-induced cytopathicity (CPE reduction, MTS/PMS); type: cell-based, bovine viral diarrhea virus; settings: for EC50: 50% CPE reduction; for protection of MDBK cells from BVDV-induced cytopathicity (in words): at the concentrations tested
in vitro = settings: bovine
[2] = Drug cytotoxicity in uninfected MDBK cells (MTS/PMS); settings: bovine
MDBK cells [3] = assay: Cytotoxicity of test compound in MDBK cells in the absence of viral infection (Example 1); settings: absence of viral infection
BVDV [4] = assay: Triple combination checkerboard CPE assay (celgosivir or castanospermine + interferon-α2b + ribavirin), MacSynergy II; type: cell-based, bovine viral diarrhea virus; settings: for EC50: read-out: Average Castanospermine EC50
Protocol: Each double or triple combination was performed twice. The combination efficacy data were analyzed using the MacSynergy™ II software program as described herein.
Each double or triple combination was performed twice. The combination efficacy data were analyzed using the MacSynergy™ II software program as described herein. The EC50 for each of celgosivir and castanospermine was calculated from the triple combination studies described in Example 6.
Each double or triple combination was performed twice. The combination efficacy data were analyzed using the MacSynergy™ software program as described herein. The EC50 for interferon-α2b was calculated from the triple combination studies described in Example 6.

BVDV [5] = assay: Double combination checkerboard CPE assay, MacSynergy II and isobolograms; type: cell-based, bovine viral diarrhea virus; settings: at 10 IU/mL interferon-α2b
Protocol: A double combination assay was performed using MDBK cells infected with BVDV in an inhibition of cytopathic effect (CPE) assay as described in Example 2. The double drug combinations were measured by creating a “checkerboard” of drug concentrations used on cell monolayers in microtiter plates, with one drug being titrated horizontally and the other drug titrated vertically, and each double combination being tested at least twice.
The EC50 values of a first test compound derived while in combination with a second test compound were plotted against the corresponding concentration of the second test compound to create an isobole (dose pair). All of the isoboles were plotted in an isobologram to determine the presence of synergy, antagonism or additivity for the combined test compounds. […] The line connecting the monotherapy EC50 values represents the theoretical additivity effect values for the two compounds.
In addition to generating isobolograms, the checkerboard data was imported into MacSynergy™ II software to graph the observed synergy (or additive or antagonism) volumes for the double combinations tested. Briefly, the calculated additive interactions were subtracted from the experimentally determined values to reveal the corresponding drug concentrations at which a synergistic (indicated by positive % values) or antagonistic (indicated by negative % values) effect is observed. The greater the positive percent volume observed, the greater the synergy between the two compounds. […] In contrast, any value about or less than −25 μM^2% or μM(IU/mL) % is indicative of a significant antagonistic effect. The data presented in Table 5 represent volumes of synergy or antagonism with 95% confidence. The confidence level was calculated using a Bonferroni adjustment as a conservative estimate of significance to statistically evaluate the data.

BVDV strain NADL = assay: Inhibition of viral release from BVDV-infected MDBK cells (plaque titer); settings: MOI = 1; for EC50: inhibits 50% of viral release; for EC50 / EC90: 24 hours; for EC90: inhibits 90% of viral release
MDBK cells [6] = assay: Drug cytotoxicity in uninfected MDBK cells (MTS/PMS); settings: uninfected MDBK cells
[7] = Bovine viral diarrhea virus isolates and strains, MDBK, MOI 0.05

O=C(N[C@@H](Cc1c[nH]c2ccccc12)C(=O)O)c1ccc2ccn(Cc3ccccc3)c2c1 [2-BAIP, (L)-2-[(1-Benzyl-1H-indole-6-carbonyl)-amino]-3-(1H-indol-3-yl)-propionic acid, reference compound]
EC50 (BVDV [1]; [7]): > 50 µM
protection of MDBK cells from BVDV-induced cytopathicity (in words) (BVDV [1]): do not protect
CC50 (in vitro): > 50 µM

NC12CC3CC(CC(C3)C1)C2 [Amantadine, amantadine, reference compound]
EC50 (BVDV [1]; MOI 0.05): 357 µM
EC50 (BVDV [1]; [7]): 476 µM
CC50 [2]: > 1000 µM

O[C@H]1[C@H](O)[C@@H](O)CN2CC[C@H](O)[C@H]12 [Castanospermine, [1S-(1α,6β,7α,8β,8aβ)]-octahydro-1,6,7,8-indolizinetetrol]
CC50 (MDBK cells [3]): > 2000 µM
EC50 (BVDV [4]; Ribavirin 0 μM, Interferon-α2b 0 IU/mL, listed as castanospermine): ~52 µM
EC50 (BVDV [4]; Ribavirin 0 μM, Interferon-α2b 0 IU/mL): 52.2 ± 9.5 µM
EC50 (BVDV [4]; Ribavirin 0 μM, Interferon-α2b 0.7 IU/mL): 39 ± 13.4 µM
EC50 (BVDV [4]; Ribavirin 0 μM, Interferon-α2b 2.2 IU/mL): 18.9 ± 2.1 µM
EC50 (BVDV [4]; Ribavirin 0 μM, Interferon-α2b 6.7 IU/mL): 11.9 ± 2.5 µM
EC50 (BVDV [4]; Ribavirin 0 μM, Interferon-α2b 20 IU/mL): < 1.3 µM
EC50 (BVDV [4]; Ribavirin 0.12 μM, Interferon-α2b 0.7 IU/mL): 34.3 ± 3.4 µM
EC50 (BVDV [4]; Ribavirin 0.12 μM, Interferon-α2b 2.2 IU/mL): 23.4 ± 2.4 µM
EC50 (BVDV [4]; Ribavirin 0.12 μM, Interferon-α2b 6.7 IU/mL): 9.7 ± 4.8 µM
EC50 (BVDV [4]; Ribavirin 0.12 μM, Interferon-α2b 20 IU/mL): < 1.4 µM
EC50 (BVDV [4]; Ribavirin 0.37 μM, Interferon-α2b 0.7 IU/mL): 27.7 ± 6.3 µM
EC50 (BVDV [4]; Ribavirin 0.37 μM, Interferon-α2b 2.2 IU/mL): 19.7 ± 5.2 µM
EC50 (BVDV [4]; Ribavirin 0.37 μM, Interferon-α2b 6.7 IU/mL): 6.5 ± 7.5 µM
EC50 (BVDV [4]; Ribavirin 0.37 μM, Interferon-α2b 20 IU/mL): < 1.5 µM
EC50 (BVDV [4]; Ribavirin 1.1 μM, Interferon-α2b 0.7 IU/mL): 14 ± 4.5 µM
EC50 (BVDV [4]; Ribavirin 1.1 μM, Interferon-α2b 2.2 IU/mL): 6.9 ± 1 µM
EC50 (BVDV [4]; Ribavirin 1.1 μM, Interferon-α2b 6.7 IU/mL): < 1.2 µM
EC50 (BVDV [4]; Ribavirin 1.1 μM, Interferon-α2b 20 IU/mL): < 1.2 µM
EC50 (BVDV [4]; Ribavirin 3.3 μM, Interferon-α2b 0.7 IU/mL): < 1.2 µM
EC50 (BVDV [4]; Ribavirin 3.3 μM, Interferon-α2b 2.2 IU/mL): < 1.2 µM
EC50 (BVDV [4]; Ribavirin 3.3 μM, Interferon-α2b 6.7 IU/mL): < 1.2 µM
EC50 (BVDV [4]; Ribavirin 3.3 μM, Interferon-α2b 20 IU/mL): < 1.2 µM
dose-dependent reduction in EC50 (BVDV [4]; upon the addition of increasing concentrations of interferon-α2b): up to 52 fold
fold reduction of EC50 of castanospermine (BVDV [5]): more than 7 fold
EC50 (BVDV [1]; MOI 0.01, read-out: EC50): 62 ± 15 µM
TI (Therapeutic Index, CC50/EC50) (BVDV strain NADL): >100
EC50 (BVDV strain NADL): 19.4 ± 8.3 µM
EC90 (BVDV strain NADL): 89 ± 21 µM
CC50 (MDBK cells [6]): > 1000 µM

CCCCN1C[C@H](O)[C@@H](O)[C@H](O)[C@H]1CO [NB-DNJ, N-butyldeoxynojirimycin, reference compound]
EC50 (BVDV [1]; MOI 0.05, read-out: EC50): 459 µM
CC50 (MDBK cells [6]): > 500 µM

C[C@@]1(O)[C@H](O)[C@@H](CO)O[C@H]1n1ccc(N)nc1=O [NM-107, 2′-C-methyl cytidine, reference compound]
EC50 (BVDV [1]; Bovine viral diarrhea virus isolates and strains, MDBK, MOI 0.01): 2.1 ± 0.5 µM
CC50 (in vitro): 228 µM

Interferon-α2b
CC50 (MDBK cells [3]): >1000 IU/mL
Average Interferon-α2b EC50 (BVDV [4]; Castanospermine added 0 μM): 16 IU/mL
Average Interferon-α2b EC50 (BVDV [4]; Castanospermine added 1.2 μM): 18 IU/mL
Average Interferon-α2b EC50 (BVDV [4]; Castanospermine added 3.7 μM): 13 IU/mL
Average Interferon-α2b EC50 (BVDV [4]; Castanospermine added 11 μM): 7 IU/mL
Average Interferon-α2b EC50 (BVDV [4]; Castanospermine added 33 μM): 1 IU/mL
Average Interferon-α2b EC50 (BVDV [4]; Celgosivir added 0 μM): 19 IU/mL
Average Interferon-α2b EC50 (BVDV [4]; Celgosivir added 0.25 μM): 21 IU/mL
Average Interferon-α2b EC50 (BVDV [4]; Celgosivir added 0.74 μM): 14 IU/mL
Average Interferon-α2b EC50 (BVDV [4]; Celgosivir added 2.2 μM): 5 IU/mL
Average Interferon-α2b EC50 (BVDV [4]; Celgosivir added 6.7 μM): <1 IU/mL
EC50 of interferon-α2b (BVDV [4]; at increased concentration of castanospermine or celgosivir): less than 1 IU/mL
EC50 of interferon-α2b (BVDV [4]; without added castanospermine or celgosivir): about 20 IU/mL
EC50 (BVDV [1]; MOI 0.01): 19.4 ± 6 IU/mL
TI (Therapeutic Index, CC50/EC50) (BVDV strain NADL): >200
EC50 (BVDV strain NADL): 8.0 ± 6.8 IU/mL
EC90 (BVDV strain NADL): 114 ± 92 IU/mL
CC50 (MDBK cells [6]): >300 IU/mL

Interferon-ω: type I interferon, interferon-ω (Cedarlane Laboratories)
EC50 (BVDV [1]; MOI 0.01): 37 ± 1.4 IU/mL
CC50 (MDBK cells [6]): >1000 IU/mL

Peginterferon-α2a
EC50 (BVDV [1]; MOI 0.01): 16.6 ± 11 IU/mL
CC50 (MDBK cells [6]): >1000 IU/mL

B1: Interferon-γ: type II interferon (protein, UniProt P01579 24-161, looked up)
Interferon gamma: QDPYVKEAENLKKYFNAGHSDVADNGTLFLGILKNWKEESDRKIMQSQIVSFYFKLFKNFKDDQSIQKSVETIKEDMNVKFFNSNKKKRDDFEKLTNYSVTDLNVQRKAIHELIQVMAELSPAAKTGKRKRSQMLFRG
EC50 (BVDV [1]; MOI 0.01): >1000 IU/mL
protection of MDBK cells from BVDV-induced cytopathicity (in words) (BVDV [1]): do not protect
CC50 (MDBK cells [6]): >1000 IU/mL
